Assay results as given in patent US6610675B1 (priority 1980, dated 2003).

Experiments:
Assay type in all cases: in vivo, rat
[1] = tested on: granulation tissue formation caused by implantation of cotton pellets; assay: Granuloma formation test (local cotton pellet granuloma assay)
Method: The test compound was dissolved in acetone and aliquots of varying concentrations were injected into cotton pellets. The pellets were dried and then one pellet was implanted beneath the skin of each test rat. Six days later, the animals were sacrificed and the granulation tissue (granuloma) which formed in and around the implanted pellet was removed, dried and weighed. In addition, the thymi and adrenals were removed and weighed.

[2] = tested on: blank cotton pellet granuloma; assay: Blank cotton pellet granuloma assay (intravenous administration); settings: 3 days
Method: A further test was undertaken to determine the thymolytic activity of a representative species of the invention as compared to betamethasone 17-valerate. In this test, the drugs were administered intravenously to rats, while using a blank cotton pellet granuloma assay. Male Sprague-Dawley rats, each weighing about 185 grams (166-196 grams), were used. Two cotton pellets, each weighing 30 mg and containing no test compounds, were sterilized and implanted sub-cutaneously into the back of each test animal. This day was considered day 0 of implantation. Test compounds suspended in 0.8% polysorbate 80 were administered intravenously once daily for 3 consecutive days beginning with day 1. On day 5, the animals were sacrificed and the two pellets, with their respective granulomas, were removed, dried overnight in an oven at 50° C. and weighed (dry granuloma weight). The thymi and final body weights were also recorded.
In the foregoing tests, there was determined the deactivation of the representative species of the present soft steroids administered intravenously to rats. […] The test compounds were administered intravenously to rats to check the test compounds also for systemic anti-inflammatory activity as compared to betamethasone 17-valerate. The test compounds were found lower in the inhibition of granulation tissue formation and also in the thymus involution activity than betamethasone 17-valerate. From the results of the tests, it is presumed that the compounds which will not be readily subjected to metabolism (deactivation) have a systemic anti-inflammatory activity, as is the case with betamethasone 17-valerate.

[3] = tested on: ear swelling induced by croton oil; assay: Ear edema test; settings: 1 mg/kg topical
Method: The test animals were Sprague/Dawley rats weighing approximately 150 grams each. In treatment groups, selected amounts of the test compound were dissolved in acetone containing 5% croton oil and 50 microliters of the solution were applied to the inner surface of the right ear of the rats. A control group was identically treated with vehicle only, i.e. 5% croton oil in acetone. Six hours after croton oil challenge, a constant region of each ear was removed by dissection under anesthesia. Then, 48 hours after steroid treatment, the animals were sacrificed and the thymi and adrenals were removed and weighed. The test results showing the inhibitory effect of topically applied steroids on the ear swelling induced by croton oil are summarized in Table II below.

thymus weight in rats = assay: Thymus inhibition testing (subcutaneous administration); settings: for Body weight gain / Thymus / Thymus Inhibition: Table VII, three days
Procedure, shortened: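 Male Sprague-Dawley rats were dosed systemically. On the fifth day, 48 hours after the last treatment, animals were sacrificed and thymus weights recorded.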

[4] = Table X, betamethasone 17-valerate = 1

Structure (SMILES): CCCCC(=O)O[C@]1(C(=O)CO)[C@@H](C)C[C@H]2[C@@H]3CCC4=CC(=O)C=C[C@]4(C)[C@@]3(F)[C@@H](O)C[C@@]21C [Betamethasone 17-valerate, reference compound]
- Body wt. gain ([1]; Table III, 1 mg/pellet): 16.6 ± 1.9 g
- Granulation tissue Dry wt. ([1]; Table III, 1 mg/pellet): 35.4 ± 7.3 mg/100 g body wt.
- Granulation tissue Inhibition ([1]; Table III, 1 mg/pellet): 19.0%
- Relative organ weight Adrenals ([1]; Table III, 1 mg/pellet): 15.5 ± 1.3 mg/100 g body wt.
- Relative organ weight Adrenals (Decrease %) ([1]; Table III, 1 mg/pellet): (34.6) %
- Relative organ weight Thymus ([1]; Table III, 1 mg/pellet): 47 ± 2 mg/100 g body wt.
- Relative organ weight Thymus (Decrease %) ([1]; Table III, 1 mg/pellet): (85.6) %
- Body wt. gain ([1]; Table III, 3 mg/pellet): 14.9 ± 1.7 g
- Granulation tissue Dry wt. ([1]; Table III, 3 mg/pellet): 31.6 ± 2.1 mg/100 g body wt.
- Granulation tissue Inhibition ([1]; Table III, 3 mg/pellet): 27.7%
- Relative organ weight Adrenals ([1]; Table III, 3 mg/pellet): 13.6 ± 0.9 mg/100 g body wt.
- Relative organ weight Adrenals (Decrease %) ([1]; Table III, 3 mg/pellet): (42.6) %
- Relative organ weight Thymus ([1]; Table III, 3 mg/pellet): 38 ± 3 mg/100 g body wt.
- Relative organ weight Thymus (Decrease %) ([1]; Table III, 3 mg/pellet): (88.3) %
- Body wt. gain ([1]; Table III, 10 mg/pellet): 17.0 ± 2.1 g
- Granulation tissue Dry wt. ([1]; Table III, 10 mg/pellet): 40.7 ± 2.6 mg/100 g body wt.
- Granulation tissue Inhibition ([1]; Table III, 10 mg/pellet): 6.9%
- Relative organ weight Adrenals ([1]; Table III, 10 mg/pellet): 12.6 ± 0.9 mg/100 g body wt.
- Relative organ weight Adrenals (Decrease %) ([1]; Table III, 10 mg/pellet): (46.8) %
- Relative organ weight Thymus ([1]; Table III, 10 mg/pellet): 43 ± 4 mg/100 g body wt.
- Relative organ weight Thymus (Decrease %) ([1]; Table III, 10 mg/pellet): (86.8) %
- Body wt. gain ([1]; Table IV, 100 μg/pellet): 24.9 ± 1.9 g
- Granulation tissue Dry wt. ([1]; Table IV, 100 μg/pellet): 41.1 ± 2.7 mg
- Granulation tissue Dry wt. Inhibition ([1]; Table IV, 100 μg/pellet): 49.4%
- Granulation tissue Wet wt. ([1]; Table IV, 100 μg/pellet): 400 ± 19 mg
- Granulation tissue Wet wt. Inhibition ([1]; Table IV, 100 μg/pellet): 29.3%
- Thymus wt. ([1]; Table IV, 100 μg/pellet): 364 ± 24 mg
- Thymus wt. (Decrease %) ([1]; Table IV, 100 μg/pellet): (18.2) %
- Body wt. gain ([1]; Table IV, 300 μg/pellet): 22.3 ± 1.2 g
- Granulation tissue Dry wt. ([1]; Table IV, 300 μg/pellet): 33.3 ± 3.6 mg
- Granulation tissue Dry wt. Inhibition ([1]; Table IV, 300 μg/pellet): 59.0%
- Granulation tissue Wet wt. ([1]; Table IV, 300 μg/pellet): 347 ± 15 mg
- Granulation tissue Wet wt. Inhibition ([1]; Table IV, 300 μg/pellet): 38.7%
- Thymus wt. ([1]; Table IV, 300 μg/pellet): 264 ± 29 mg
- Thymus wt. (Decrease %) ([1]; Table IV, 300 μg/pellet): (40.7) %
- Body wt. gain ([1]; Table IV, 1000 μg/pellet): 5.3 ± 1.0 g
- Granulation tissue Dry wt. ([1]; Table IV, 1000 μg/pellet): 38.1 ± 4.8 mg
- Granulation tissue Dry wt. Inhibition ([1]; Table IV, 1000 μg/pellet): 53.1%
- Granulation tissue Wet wt. ([1]; Table IV, 1000 μg/pellet): 363 ± 28 mg
- Granulation tissue Wet wt. Inhibition ([1]; Table IV, 1000 μg/pellet): 35.9%
- Thymus wt. ([1]; Table IV, 1000 μg/pellet): 77 ± 5 mg
- Thymus wt. (Decrease %) ([1]; Table IV, 1000 μg/pellet): (82.7) %
- Body wt. gain ([1]; Table IV, 3000 μg/pellet): 6.6 ± 1.4 g
- Granulation tissue Dry wt. ([1]; Table IV, 3000 μg/pellet): 43.0 ± 4.1 mg
- Granulation tissue Dry wt. Inhibition ([1]; Table IV, 3000 μg/pellet): 47.0%
- Granulation tissue Wet wt. ([1]; Table IV, 3000 μg/pellet): 374 ± 15 mg
- Granulation tissue Wet wt. Inhibition ([1]; Table IV, 3000 μg/pellet): 33.9%
- Thymus wt. ([1]; Table IV, 3000 μg/pellet): 63 ± 3 mg
- Thymus wt. (Decrease %) ([1]; Table IV, 3000 μg/pellet): (85.8) %
- Body wt. gain ([1]; Table V-a, 10 μg/pellet): 31.8 ± 1.6 g
- Granulation tissue Dry wt. ([1]; Table V-a, 10 μg/pellet): 38.5 ± 6.2 mg
- Granulation tissue Dry wt. Inhibition ([1]; Table V-a, 10 μg/pellet): 51.9%
- Granulation tissue Wet wt. ([1]; Table V-a, 10 μg/pellet): 375 ± 19 mg
- Granulation tissue Wet wt. Inhibition ([1]; Table V-a, 10 μg/pellet): 28.6%
- Thymus wt. ([1]; Table V-a, 10 μg/pellet): 479 ± 25 mg
- Thymus wt. (Decrease %) ([1]; Table V-a, 10 μg/pellet): (3.2) %
- Body wt. gain ([1]; Table V-a, 30 μg/pellet): 30.8 ± 3.0 g
- Granulation tissue Dry wt. ([1]; Table V-a, 30 μg/pellet): 46.2 ± 7.4 mg
- Granulation tissue Dry wt. Inhibition ([1]; Table V-a, 30 μg/pellet): 42.3%
- Granulation tissue Wet wt. ([1]; Table V-a, 30 μg/pellet): 412 ± 42 mg
- Granulation tissue Wet wt. Inhibition ([1]; Table V-a, 30 μg/pellet): 21.5%
- Thymus wt. ([1]; Table V-a, 30 μg/pellet): 484 ± 23 mg
- Thymus wt. (Decrease %) ([1]; Table V-a, 30 μg/pellet): (2.2) %
- Body wt. gain ([1]; Table V-a, 100 μg/pellet): 25.7 ± 1.2 g
- Granulation tissue Dry wt. ([1]; Table V-a, 100 μg/pellet): 41.0 ± 4.2 mg
- Granulation tissue Dry wt. Inhibition ([1]; Table V-a, 100 μg/pellet): 48.8%
- Granulation tissue Wet wt. ([1]; Table V-a, 100 μg/pellet): 419 ± 20 mg
- Granulation tissue Wet wt. Inhibition ([1]; Table V-a, 100 μg/pellet): 20.2%
- Thymus wt. ([1]; Table V-a, 100 μg/pellet): 378 ± 30 mg
- Thymus wt. (Decrease %) ([1]; Table V-a, 100 μg/pellet): (23.6) %
- ED50 ([1]; Table XII, anti-inflammatory effect in cotton pellet granuloma): 100 μg/pellet
- Body wt. gain ([2]; 0.1 mg/kg/day i.v.): 14.4 ± 1.6 g
- Dry granuloma wt. ([2]; 0.1 mg/kg/day i.v.): 49.3 ± 3.9 mg
- Dry granuloma wt. Inhibition ([2]; 0.1 mg/kg/day i.v.): 21.4%
- Thymus wt. ([2]; 0.1 mg/kg/day i.v.): 305 ± 14 mg
- Thymus wt. Decrease ([2]; 0.1 mg/kg/day i.v.): 27.7%
- Body wt. gain ([2]; 0.3 mg/kg/day i.v.): 12.2 ± 1.1 g
- Dry granuloma wt. ([2]; 0.3 mg/kg/day i.v.): 44.4 ± 2.8 mg
- Dry granuloma wt. Inhibition ([2]; 0.3 mg/kg/day i.v.): 29.2%
- Thymus wt. ([2]; 0.3 mg/kg/day i.v.): 288 ± 27 mg
- Thymus wt. Decrease ([2]; 0.3 mg/kg/day i.v.): 31.8%
- Body wt. gain ([2]; 1 mg/kg/day i.v.): 12.9 ± 1.1 g
- Dry granuloma wt. ([2]; 1 mg/kg/day i.v.): 46.1 ± 4.3 mg
- Dry granuloma wt. Inhibition ([2]; 1 mg/kg/day i.v.): 26.5%
- Thymus wt. ([2]; 1 mg/kg/day i.v.): 233 ± 15 mg
- Thymus wt. Decrease ([2]; 1 mg/kg/day i.v.): 44.8%
- Body wt. gain ([2]; 3 mg/kg/day i.v.): 13.0 ± 2.5 g
- Dry granuloma wt. ([2]; 3 mg/kg/day i.v.): 47.3 ± 2.7 mg
- Dry granuloma wt. Inhibition ([2]; 3 mg/kg/day i.v.): 24.6%
- Thymus wt. ([2]; 3 mg/kg/day i.v.): 167 ± 22 mg
- Thymus wt. Decrease ([2]; 3 mg/kg/day i.v.): 60.4%
- Ear Weight, % Increase ([3]; 6 hr): 10.9 ± 6.3 %
- Ear Weight, % Inhibition ([3]; 6 hr): 82.2%
- Ear Weight, Inflamed Ear ([3]; 6 hr): 55.4 ± 1.2 mg
- Ear Weight, Untreated Ear ([3]; 6 hr): 50.4 ± 2.0 mg
- Relative organ weight Adrenals ([3]; 48 hours): 18.9 ± 1.9 mg/100 g body wt.
- Relative organ weight Thymus ([3]; 48 hours): 267 ± 19 mg/100 g body wt.
- Body weight gain (thymus weight in rats; 0.1 mg/kg/day s.c.): 15.5 ± 0.9 g
- Thymus (thymus weight in rats; 0.1 mg/kg/day s.c.): 362 ± 16 mg
- Thymus Inhibition (thymus weight in rats; 0.1 mg/kg/day s.c.): 23.1%
- Body weight gain (thymus weight in rats; 0.3 mg/kg/day s.c.): 12.4 ± 0.9 g
- Thymus (thymus weight in rats; 0.3 mg/kg/day s.c.): 276 ± 11 mg
- Thymus Inhibition (thymus weight in rats; 0.3 mg/kg/day s.c.): 41.4%
- Body weight gain (thymus weight in rats; 1 mg/kg/day s.c.): 13.0 ± 1.1 g
- Thymus (thymus weight in rats; 1 mg/kg/day s.c.): 200 ± 14 mg
- Thymus Inhibition (thymus weight in rats; 1 mg/kg/day s.c.): 57.5%
- Body weight gain (thymus weight in rats; 3 mg/kg/day s.c.): 9.9 ± 1.3 g
- Thymus (thymus weight in rats; 3 mg/kg/day s.c.): 119 ± 7 mg
- Thymus Inhibition (thymus weight in rats; 3 mg/kg/day s.c.): 74.7%
- Relative Potency (TED40) (thymus weight in rats; [4]): 1
- Relative Potency (TED50) (thymus weight in rats; [4]): 1
- TED40 (thymus weight in rats; Table X, dose required to achieve 40% inhibition of thymi weight, subcutaneous): 0.30 mg
- TED50 (thymus weight in rats; Table X, dose required to achieve 50% inhibition of thymi weight, subcutaneous): 0.58 mg
- Relative Potency (TED40) (thymus weight in rats; Table XII, hydrocortisone 17-butyrate = 1): 4
- TED40 (thymus weight in rats; Table XII, thymus inhibition effect, subcutaneously): 0.3 mg/kg
